“Also recorded” adds a separate entry of the source.
Tested on: A/PR/8/34; H1N1 viruses (PR8-WT, PR8-A122V)
Design: species or system C57BL/6 mice
Conditions: mouse, in vivo

SMILES	protection from the effects of influenza infection	columnar organization of the airway epithelium (ip)	epithelial damage in lung airways caused by PR8-WT and PR8-A122V (ip)
CC1=C2C[C@H]3[C@@H](CC=C4C[C@@H](O)CC[C@@]43C)[C@@H]2CC[C@]12O[C@@H]1C[C@H](C)CN[C@H]1[C@H]2C [cyclopamine]	partially protected	restored a degree of columnar organization	reduced epithelial damage; also recorded: partially rescued; also recorded: reduces viral damage in the lung
C[C@H]1CC[C@]2(NC1)O[C@H]1C[C@H]3[C@@H]4CC[C@H]5C[C@@H](O)CC[C@]5(C)[C@H]4CC[C@]3(C)[C@H]1[C@@H]2C [tomatidine]	–	–	no rescue of airway damage; also recorded: no obvious effect
